From publication PMC6572064, “Discovery of 2-(1-(3-(4-Chloroxyphenyl)-3-oxo- propyl)pyrrolidine-3-yl)-1H-benzo[d]imidazole-4-carboxamide: A Potent Poly(ADP-ribose) Polymerase (PARP) Inhibitor for Treatment of Cancer” (Molecules, 2019)
Where two headings read alike, the source gives them in different places.

Experiments:
[1] = system: CAPAN-1 (a BRCA-2-mutated pancreatic cancer cell line); assay: Cell proliferation assay, three-day, CellTiter-Glo, CAPAN-1; format: cell-based; conditions: Homo sapiens; for inhibition at 0.00508 µM: CAPAN-1, 0.00508 uM; for inhibition at 0.0152 µM: CAPAN-1, 0.0152 uM; for inhibition at 0.0457 µM: CAPAN-1, 0.0457 uM; for inhibition at […]: CAPAN-1, 0.14 uM; for inhibition at 0.41 µM: CAPAN-1, 0.41 uM; for inhibition at 1.23 µM: CAPAN-1, 1.23 uM; for inhibition at 3.7 µM: CAPAN-1, 3.70 uM; for inhibition at 11.11 µM: CAPAN-1, 11.11 uM; for inhibition at 33.33 µM: CAPAN-1, 33.33 uM; for inhibition at 100 µM: CAPAN-1, 100.00 uM
Protocol: (§1) A three-day assay was conducted. A cell suspension was prepared. Cell density was counted by an automated cell counter and then diluted to the required density, according to seeding density. 50 μL cells were seeded into 384-well plate in growth medium according to the plate map. The cells were incubated at 37 °C, 5% CO2 overnight.
(§2) 200× compound solution in DMSO was prepared and diluted with growth medium to 26× final concentration by addition of 26 μL 200× compounds to 174 μL growth medium. Then 2 μL of diluted compound solution was added to cells and the cell was incubated at 37 °C, 5% CO2 for 72 h.
(§3) The assay plate was equilibrated to room temperature prior to measurement. 15 μL of CellTiter-Glo Reagent was added into each well and the contents were mixed for 2 min on an orbital shaker to induce cell lysis. The cells were incubated at room temperature for 60 min to stabilize luminescent signal. Luminescence was recorded on the Envision system.

[2] = system: MDA-MB-436 (a BRCA-1-mutated breast cancer cell line); assay: Cell proliferation assay, three-day, CellTiter-Glo, MDA-MB-436; format: cell-based; conditions: for inhibition at 0.00508 µM / inhibition at 0.0152 µM / inhibition at 0.0457 µM / inhibition at 0.41 µM / inhibition at 1.23 µM / inhibition at 3.7 µM / inhibition at 11.11 µM / inhibition at 33.33 µM / inhibition at 100 µM / IC50: Homo sapiens; for inhibition at 0.00508 µM: MDA-MB-436, MDA-MB-436, Conc. 0.00508 uM; for inhibition at 0.0152 µM: MDA-MB-436, MDA-MB-436, Conc. 0.0152 uM; for inhibition at 0.0457 µM: MDA-MB-436, MDA-MB-436, Conc. 0.0457 uM; for inhibition at 0.41 µM: MDA-MB-436, MDA-MB-436, Conc. 0.41 uM; for inhibition at 1.23 µM: MDA-MB-436, MDA-MB-436, Conc. 1.23 uM; for inhibition at 3.7 µM: MDA-MB-436, MDA-MB-436, Conc. 3.70 uM; for inhibition at 11.11 µM: MDA-MB-436, MDA-MB-436, Conc. 11.11 uM; for inhibition at 33.33 µM: MDA-MB-436, MDA-MB-436, Conc. 33.33 uM; for inhibition at 100 µM: MDA-MB-436, MDA-MB-436, Conc. 100.00 uM
Protocol: as §1, §2, §3

PARP-2 = molecular target: T1, PARP-2 (Homo sapiens, UniProt Q9UGN5); assay: PARP-2 inhibition assay (PARP-2 Chemiluminescent Assay Kit, BPS Bioscience); format: biochemical; conditions: 10 nM compound
T1 construct: purchased BPS Bioscience 80552
Protocol: (§4) The PARP-1 and PARP-2 inhibition assays were performed in outsourcing, by a CRO company, Shanghai Medicilon Inc. (Shanghai, China). […] Briefly, PARP-1 or PARP-2 biotinylated substrate was incubated with compounds or solvent control at varying concentrations and an assay buffer containing the PARP-1 or PARP-2 enzyme.

PARP-1 = molecular target: T2, PARP-1 (Homo sapiens, UniProt P09874); assay: PARP-1 inhibition assay (PARP-1 Chemiluminescent Assay Kit, BPS Bioscience); format: biochemical; conditions: 10 nM compound
T2 construct: purchased BPS Bioscience 80569
Protocol: as §4

T1 sequence (Q9UGN5 whole entry): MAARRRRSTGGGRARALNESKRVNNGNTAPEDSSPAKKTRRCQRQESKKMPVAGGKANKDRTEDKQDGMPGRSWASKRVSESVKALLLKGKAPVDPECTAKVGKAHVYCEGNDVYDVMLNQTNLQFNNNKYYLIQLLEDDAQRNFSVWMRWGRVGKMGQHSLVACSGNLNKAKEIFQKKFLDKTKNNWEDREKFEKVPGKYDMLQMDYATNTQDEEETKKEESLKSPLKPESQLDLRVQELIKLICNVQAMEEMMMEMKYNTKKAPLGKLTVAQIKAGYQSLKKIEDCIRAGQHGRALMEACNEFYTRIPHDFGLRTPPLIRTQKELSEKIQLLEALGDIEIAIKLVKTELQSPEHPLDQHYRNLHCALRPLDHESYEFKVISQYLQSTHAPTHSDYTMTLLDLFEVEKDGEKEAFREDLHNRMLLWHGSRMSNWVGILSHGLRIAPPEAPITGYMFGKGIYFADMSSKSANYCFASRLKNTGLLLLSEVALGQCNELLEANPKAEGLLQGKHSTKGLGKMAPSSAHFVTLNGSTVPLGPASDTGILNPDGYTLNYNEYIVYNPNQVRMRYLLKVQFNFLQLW
T2 sequence (P09874 whole entry): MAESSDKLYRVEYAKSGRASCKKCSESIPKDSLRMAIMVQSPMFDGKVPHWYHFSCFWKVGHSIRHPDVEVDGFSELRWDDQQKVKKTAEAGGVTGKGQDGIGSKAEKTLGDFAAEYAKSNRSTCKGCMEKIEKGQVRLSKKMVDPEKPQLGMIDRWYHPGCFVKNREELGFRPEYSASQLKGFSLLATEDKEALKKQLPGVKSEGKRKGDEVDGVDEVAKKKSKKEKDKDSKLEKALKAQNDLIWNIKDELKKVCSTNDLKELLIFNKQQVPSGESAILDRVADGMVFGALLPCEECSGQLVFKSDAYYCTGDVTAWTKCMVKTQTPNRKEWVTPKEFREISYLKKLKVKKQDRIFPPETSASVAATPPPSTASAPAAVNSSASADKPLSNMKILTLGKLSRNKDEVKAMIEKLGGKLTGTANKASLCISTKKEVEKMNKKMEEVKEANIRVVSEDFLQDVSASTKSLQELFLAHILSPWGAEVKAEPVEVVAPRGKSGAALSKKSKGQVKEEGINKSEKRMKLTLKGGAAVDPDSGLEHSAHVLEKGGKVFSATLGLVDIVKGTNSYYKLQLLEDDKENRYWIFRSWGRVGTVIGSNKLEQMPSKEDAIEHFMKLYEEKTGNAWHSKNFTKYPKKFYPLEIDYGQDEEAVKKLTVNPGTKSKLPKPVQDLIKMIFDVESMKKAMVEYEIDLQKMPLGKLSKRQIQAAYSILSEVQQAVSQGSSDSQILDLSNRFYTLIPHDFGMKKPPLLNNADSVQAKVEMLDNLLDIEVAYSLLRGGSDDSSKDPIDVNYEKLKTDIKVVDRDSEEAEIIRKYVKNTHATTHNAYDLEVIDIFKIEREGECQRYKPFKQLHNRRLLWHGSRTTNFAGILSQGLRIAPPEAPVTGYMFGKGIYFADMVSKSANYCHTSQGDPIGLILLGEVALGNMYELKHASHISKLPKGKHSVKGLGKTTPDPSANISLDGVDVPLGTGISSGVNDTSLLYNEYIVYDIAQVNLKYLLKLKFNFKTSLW

Q: Which results are given for `NC(=O)c1cccc2[nH]c(C3CCN(CC(O)c4ccccc4)C3)nc12` (stereo not drawn) [Compound 5cf, 2-(1-(2-Hydroxy-2-phenylethyl)pyrrolidin-3-yl)-1H-benzo[d]imidazole-4-carboxamide]?
A: IC50 ([1]; CAPAN-1, 72 h, CellTiter-Glo, read-out: CAPAN-1 IC50): > 100 µM; inhibition at 0.00508 µM ([1]; replicate 1, read-out: Inh % 1): -1.7%; inhibition at 0.00508 µM ([1]; replicate 2, read-out: Inh % 2): -8.4%; inhibition at 0.0152 µM ([1]; replicate 1, read-out: Inh % 1): 3.2%; inhibition at 0.0152 µM ([1]; replicate 2, read-out: Inh % 2): -3.1%; inhibition at 0.0457 µM ([1]; replicate 1, read-out: Inh % 1): -6.9%; inhibition at 0.0457 µM ([1]; replicate 2, read-out: Inh % 2): -3.4%; inhibition at […] ([1]; replicate 1, read-out: Inh % 1): 10.3%; inhibition at […] ([1]; replicate 2, read-out: Inh % 2): -1.9%; inhibition at 0.41 µM ([1]; replicate 1, read-out: Inh % 1): 9.4%; inhibition at 0.41 µM ([1]; replicate 2, read-out: Inh % 2): 0.649%; inhibition at 1.23 µM ([1]; replicate 1, read-out: Inh % 1): 5.9%; inhibition at 1.23 µM ([1]; replicate 2, read-out: Inh % 2): 8.1%; inhibition at 3.7 µM ([1]; replicate 1, read-out: Inh % 1): 13.8%; inhibition at 3.7 µM ([1]; replicate 2, read-out: Inh % 2): 3.5%; inhibition at 11.11 µM ([1]; replicate 1, read-out: Inh % 1): 7.2%; inhibition at 11.11 µM ([1]; replicate 2, read-out: Inh % 2): -0.268%; inhibition at 33.33 µM ([1]; replicate 1, read-out: Inh % 1): 15.8%; inhibition at 33.33 µM ([1]; replicate 2, read-out: Inh % 2): -1.9%; inhibition at 100 µM ([1]; replicate 1, read-out: Inh % 1): 29.7%; inhibition at 100 µM ([1]; replicate 2, read-out: Inh % 2): 21.1%; inhibition at 0.00508 µM ([2]; replicate 1, read-out: Inh % 1): -0.144%; inhibition at 0.00508 µM ([2]; replicate 2, read-out: Inh % 2): -3.2%; inhibition at 0.0152 µM ([2]; replicate 1, read-out: Inh % 1): -5.7%; inhibition at 0.0152 µM ([2]; replicate 2, read-out: Inh % 2): -4.4%; inhibition at 0.0457 µM ([2]; replicate 1, read-out: Inh % 1): -8.5%; inhibition at 0.0457 µM ([2]; replicate 2, read-out: Inh % 2): -9.4%; inhibition at 0.41 µM ([2]; replicate 1, read-out: Inh % 1): -14.6%; inhibition at 0.41 µM ([2]; replicate 2, read-out: Inh % 2): -10.9%; inhibition at 1.23 µM ([2]; replicate 1, read-out: Inh % 1): -9.9%; inhibition at 1.23 µM ([2]; replicate 2, read-out: Inh % 2): -7%; inhibition at 3.7 µM ([2]; replicate 1, read-out: Inh % 1): 1.6%; inhibition at 3.7 µM ([2]; replicate 2, read-out: Inh % 2): -6.5%; inhibition at 11.11 µM ([2]; replicate 1, read-out: Inh % 1): -3.4%; inhibition at 11.11 µM ([2]; replicate 2, read-out: Inh % 2): -9.3%; inhibition at 33.33 µM ([2]; replicate 1, read-out: Inh % 1): 17.3%; inhibition at 33.33 µM ([2]; replicate 2, read-out: Inh % 2): 8.3%; inhibition at 100 µM ([2]; replicate 1, read-out: Inh % 1): 86.9%; inhibition at 100 µM ([2]; replicate 2, read-out: Inh % 2): 70.9%; IC50 ([2]; MDA-MB-436, 72 h, CellTiter-Glo, read-out: MDA-MB-436 IC50): 61 µM; IC50 ([2]; MDA-MB-436, 72 h, supplement Summary sheet, read-out: IC50): 61 µM; IC50 ([2]; MDA-MB-436, curve fit list, no unit in the cell, concentration in uM, read-out: IC50): 61 µM; LogIC50 ([2]; MDA-MB-436, curve fit on Log (uM) concentrations): 1.786; Top ([2]; MDA-MB-436, curve fit parameter (Inh %), '= 100.0' is a constrained value): 104.3; inhibition at 0.01 µM (PARP-2; supplement sheet, read-out: 10 nM inhibition% PAPR-2): 8.96%; inhibition at 0.01 µM (PARP-2; read-out: PARP-2 Inhibition % (10 nM)): 9%; inhibition at 0.01 µM (PARP-1; supplement sheet, read-out: 10 nM inhibition% PAPR-1): 5.03%; inhibition at 0.01 µM (PARP-1; read-out: PARP-1 Inhibition % (10 nM)): 5%
